Laboratory results: article PMC9120017, “Inhibition mechanism of the chloride channel TMEM16A by the pore blocker 1PBC” (Nature Communications, 2022)
Read-outs that look alike come from different tables or passages of the source.

Biological target: T1, mouse TMEM16A mutant Y598A (Mus musculus, UniProt Q8BHY3, Y598A)
T1 construct: expressed in transfected cells; host or cells: HEK293T
T1 sequence (Q8BHY3 1-960 Y598A): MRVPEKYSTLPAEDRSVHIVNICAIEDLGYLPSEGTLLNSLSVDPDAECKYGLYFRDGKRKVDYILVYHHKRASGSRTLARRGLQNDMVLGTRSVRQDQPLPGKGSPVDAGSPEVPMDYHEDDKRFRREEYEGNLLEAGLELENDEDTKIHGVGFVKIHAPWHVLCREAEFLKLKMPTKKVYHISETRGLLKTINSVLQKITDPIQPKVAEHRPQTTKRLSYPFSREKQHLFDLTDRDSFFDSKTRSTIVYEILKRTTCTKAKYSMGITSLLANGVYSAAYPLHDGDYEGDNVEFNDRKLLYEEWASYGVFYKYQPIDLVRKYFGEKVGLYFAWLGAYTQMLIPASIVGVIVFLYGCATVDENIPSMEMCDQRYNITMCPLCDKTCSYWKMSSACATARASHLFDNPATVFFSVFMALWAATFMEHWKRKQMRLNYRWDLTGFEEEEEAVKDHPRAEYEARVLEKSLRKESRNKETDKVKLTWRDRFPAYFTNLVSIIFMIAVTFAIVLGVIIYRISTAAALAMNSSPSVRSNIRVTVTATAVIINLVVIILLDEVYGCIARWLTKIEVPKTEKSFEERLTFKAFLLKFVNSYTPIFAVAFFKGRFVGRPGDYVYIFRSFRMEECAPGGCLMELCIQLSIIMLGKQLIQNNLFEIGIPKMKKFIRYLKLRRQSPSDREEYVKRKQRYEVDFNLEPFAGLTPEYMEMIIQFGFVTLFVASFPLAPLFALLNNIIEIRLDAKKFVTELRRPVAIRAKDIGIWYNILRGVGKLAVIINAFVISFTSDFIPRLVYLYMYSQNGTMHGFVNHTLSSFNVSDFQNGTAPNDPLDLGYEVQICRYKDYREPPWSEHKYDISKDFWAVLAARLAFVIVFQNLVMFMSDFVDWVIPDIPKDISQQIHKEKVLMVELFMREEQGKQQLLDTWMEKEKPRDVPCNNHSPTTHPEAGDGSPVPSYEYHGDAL
Assay: Inside-out patch recording of 1PBC block, mutant Y598A
Format: cell-based
Conditions: for remaining activity at 3 µM: 1PBC conc 3; for remaining activity at 3 µM / remaining activity at 10 µM / remaining activity at 30 µM: read-out: relative current in 1PBC (avr); for remaining activity at 10 µM: 1PBC conc 10; for remaining activity at 30 µM: 1PBC conc 30
Protocol: HEK293T cells (ATCC CRL-1573) were maintained in Dulbecco’s modified Eagle’s medium (DMEM; Sigma-Aldrich) supplemented with 10 U ml^−1 penicillin, 0.1 mg ml^−1 streptomycin (Sigma-Aldrich), 2 mM L-glutamine (Sigma-Aldrich), and 10% FBS (Sigma-Aldrich) in a humidified atmosphere containing 5% CO2 at 37 °C. HEK293S GnTI^− cells (ATCC CRL-3022) were maintained in HyClone HyCell TransFx-H medium (GE Healthcare) supplemented with 10 U ml^−1 penicillin, 0.1 mg ml^−1 streptomycin, 4 mM L-glutamine, 0.15% poloxamer 188 (Sigma-Aldrich), and 1% FBS in an atmosphere containing 5% CO2 at 185 rpm at 37 °C. The ac splice variant of mouse TMEM16A (UniProt ID: Q8BHY3), mouse TMEM16B (UniProt ID: Q8CFW1), or mouse TMEM16F (UniProt ID: Q6P9J9) bearing a 3C cleavage site, a Venus YFP, a Myc tag, and a Streptavidin-binding peptide (SBP) downstream of the open reading frame in a modified pcDNA3.1 vector (Invitrogen) were used as described previously[21],[31]. Mutations were introduced using a modified QuikChange method[58] and were verified by sequencing.
HEK293T cells were transfected with 3–4 μg DNA per 6 cm Petri dish using the calcium phosphate co-precipitation method and were used within 24–96 h after transfection. Recordings were performed on inside-out patches excised from HEK293T cells expressing the construct of interest. Patch pipettes were pulled from borosilicate glass capillaries (O.D. 1.5 mm, I.D. 0.86 mm, Sutter Instrument) and were fire-polished with a microforge (Narishige) before use. Pipette resistance was typically 3–8 MΩ when filled with the recording solutions detailed below. Seal resistance was typically 4 GΩ or higher. Voltage-clamp recordings were made using Axopatch 200B, Digidata 1550, and Clampex 10.7 (Molecular Devices). Analog signals were filtered with the in-built 4-pole Bessel filter at 10 kHz and were digitized at 20 kHz. Solution exchange was achieved using a gravity-fed system through a theta glass pipette mounted on an ultra-fast piezo-driven stepper (Siskiyou). […] All recordings were performed at 20 °C.
A symmetrical ionic condition was used throughout. Stock solution with Ca^2+-EGTA contained 150 mM NaCl, 5.99 mM Ca(OH)2, 5 mM EGTA, and 10 mM HEPES at pH 7.40. Stock solution with EGTA contained 150 mM NaCl, 5 mM EGTA, and 10 mM HEPES at pH 7.40. Free Ca^2+ concentrations were adjusted by mixing the stock solutions at the required ratios calculated using the WEBMAXC program (http://web.stanford.edu/~cpatton/webmaxcS.htm). Patch pipettes were filled with the stock solution with Ca^2+-EGTA, which has a free Ca^2+ concentration of 1 mM. 1PBC (ChemBridge) stock was reconstituted in anhydrous DMSO (Sigma-Aldrich) at 100 mM and stored at −20 °C. Working solutions with 1PBC were prepared by serial dilution. Unless otherwise stated, experiments were performed at a saturating Ca^2+ concentration as shown in Supplementary Table 1 and the primary data were corrected for current rundown as described previously[21],[25].
Concentration-response relations, obtained from the ratio of the I-V plots before and after the application of the blocker, were fitted to the Hill equation,1 I/Imax=1/1+IC50/[blocker]^h where I/Imax is the normalized current responses, IC50 defines the concentration at which inhibition is at its half-maximum, and h is the Hill coefficient.

IC50 (0 mV, 2 µM Ca2+): 5 µM
remaining activity at 3 µM (0 mV): 62.2%
remaining activity at 10 µM (0 mV): 32.7%
remaining activity at 30 µM (0 mV): 16.1%
normalised current (avr) (1PBC 3, V 0 mV): -0.0008127
normalised current (avr) (1PBC 3, V 20 mV): 0.0806
normalised current (avr) (1PBC 3, V 40 mV): 0.1479
normalised current (avr) (1PBC 3, V 60 mV): 0.2094
normalised current (avr) (1PBC 3, V 80 mV): 0.2692
normalised current (avr) (1PBC 3, V 100 mV): 0.3374
normalised current (avr) (1PBC 3, V 120 mV): 0.4035
normalised current (avr) (1PBC 3, V 140 mV): 0.5334
normalised current (avr) (1PBC 3, V -20 mV): -0.0953
normalised current (avr) (1PBC 3, V -40 mV): -0.2038
normalised current (avr) (1PBC 3, V -60 mV): -0.3243
normalised current (avr) (1PBC 3, V -80 mV): -0.4624
normalised current (avr) (1PBC 3, V -100 mV): -0.5959
normalised current (avr) (1PBC 3, V -120 mV): -0.7447
normalised current (avr) (1PBC 3, V -140 mV): -0.8933
normalised current (avr) (1PBC 10, V 0 mV): -0.0004268
normalised current (avr) (1PBC 10, V 20 mV): 0.04176
normalised current (avr) (1PBC 10, V 40 mV): 0.07281
normalised current (avr) (1PBC 10, V 60 mV): 0.101
normalised current (avr) (1PBC 10, V 80 mV): 0.1339
normalised current (avr) (1PBC 10, V 100 mV): 0.1691
normalised current (avr) (1PBC 10, V 120 mV): 0.2139
normalised current (avr) (1PBC 10, V 140 mV): 0.279
normalised current (avr) (1PBC 10, V -20 mV): -0.05063
normalised current (avr) (1PBC 10, V -40 mV): -0.1149
normalised current (avr) (1PBC 10, V -60 mV): -0.2039
normalised current (avr) (1PBC 10, V -80 mV): -0.3102
normalised current (avr) (1PBC 10, V -100 mV): -0.4329
normalised current (avr) (1PBC 10, V -120 mV): -0.5455
normalised current (avr) (1PBC 10, V -140 mV): -0.6513
normalised current (avr) (1PBC 30, V 0 mV): -0.0002099
normalised current (avr) (1PBC 30, V 20 mV): 0.02319
normalised current (avr) (1PBC 30, V 40 mV): 0.04085
normalised current (avr) (1PBC 30, V 60 mV): 0.05628
normalised current (avr) (1PBC 30, V 80 mV): 0.08124
normalised current (avr) (1PBC 30, V 100 mV): 0.1064
normalised current (avr) (1PBC 30, V 120 mV): 0.1384
normalised current (avr) (1PBC 30, V 140 mV): 0.17
normalised current (avr) (1PBC 30, V -20 mV): -0.02219
normalised current (avr) (1PBC 30, V -40 mV): -0.05555
normalised current (avr) (1PBC 30, V -60 mV): -0.09343
normalised current (avr) (1PBC 30, V -80 mV): -0.1537
normalised current (avr) (1PBC 30, V -100 mV): -0.2141
normalised current (avr) (1PBC 30, V -120 mV): -0.2888
normalised current (avr) (1PBC 30, V -140 mV): -0.3717
IC50 (20 mV, 2 µM Ca2+): 4.35 µM
remaining activity at 3 µM (20 mV): 57.7%
remaining activity at 10 µM (20 mV): 29.9%
remaining activity at 30 µM (20 mV): 16.6%
IC50 (40 mV, 2 µM Ca2+): 3.57 µM
remaining activity at 3 µM (40 mV): 52.9%
remaining activity at 10 µM (40 mV): 26.1%
remaining activity at 30 µM (40 mV): 14.6%
IC50 (60 mV, 2 µM Ca2+): 3.16 µM
remaining activity at 3 µM (60 mV): 49.9%
remaining activity at 10 µM (60 mV): 24.1%
remaining activity at 30 µM (60 mV): 13.4%
log-fold IC50 (change of mutant vs WT) (80 mV): 0.1976
IC50 (80 mV, 2 µM Ca2+): 3.04 µM
remaining activity at 3 µM (80 mV): 48.1%
remaining activity at 10 µM (80 mV): 23.9%
remaining activity at 30 µM (80 mV): 14.5%
IC50 (100 mV, 2 µM Ca2+): 3.06 µM
remaining activity at 3 µM (100 mV): 48%
remaining activity at 10 µM (100 mV): 24.1%
remaining activity at 30 µM (100 mV): 15.1%
IC50 (120 mV, 2 µM Ca2+): 3.13 µM
remaining activity at 3 µM (120 mV): 47.7%
remaining activity at 10 µM (120 mV): 25.3%
remaining activity at 30 µM (120 mV): 16.4%
IC50 (140 mV, 2 µM Ca2+): 3.81 µM
remaining activity at 3 µM (140 mV): 53.3%
remaining activity at 10 µM (140 mV): 27.9%
remaining activity at 30 µM (140 mV): 17%
IC50 (-20 mV, 2 µM Ca2+): 5.71 µM
remaining activity at 3 µM (-20 mV): 66.7%
remaining activity at 10 µM (-20 mV): 35.5%
remaining activity at 30 µM (-20 mV): 15.5%
IC50 (-40 mV, 2 µM Ca2+): 7.02 µM
remaining activity at 3 µM (-40 mV): 71.1%
remaining activity at 10 µM (-40 mV): 40.1%
remaining activity at 30 µM (-40 mV): 19.4%
IC50 (-60 mV, 2 µM Ca2+): 8.86 µM
remaining activity at 3 µM (-60 mV): 75.3%
remaining activity at 10 µM (-60 mV): 47.3%
remaining activity at 30 µM (-60 mV): 21.7%
IC50 (-80 mV, 2 µM Ca2+): 11.2 µM
remaining activity at 3 µM (-80 mV): 79.4%
remaining activity at 10 µM (-80 mV): 53.2%
remaining activity at 30 µM (-80 mV): 26.4%
IC50 (-100 mV, 2 µM Ca2+): 13.5 µM
remaining activity at 3 µM (-100 mV): 81.5%
remaining activity at 10 µM (-100 mV): 59.2%
remaining activity at 30 µM (-100 mV): 29.3%
IC50 (-120 mV, 2 µM Ca2+): 15.9 µM
remaining activity at 3 µM (-120 mV): 85.1%
remaining activity at 10 µM (-120 mV): 62.4%
remaining activity at 30 µM (-120 mV): 33%
IC50 (-140 mV, 2 µM Ca2+): 18 µM
remaining activity at 3 µM (-140 mV): 87.9%
remaining activity at 10 µM (-140 mV): 64.1%
remaining activity at 30 µM (-140 mV): 36.6%
IC50 (Y598A, V 0 mV): 5 µM
IC50 (Y598A, V 20 mV): 4.35 µM
IC50 (Y598A, V 40 mV): 3.57 µM
IC50 (Y598A, V 60 mV): 3.16 µM
IC50 (Y598A, V 80 mV): 3.04 µM
IC50 (Y598A, V 100 mV): 3.06 µM
IC50 (Y598A, V 120 mV): 3.13 µM
IC50 (Y598A, V 140 mV): 3.81 µM
IC50 (Y598A, V -20 mV): 5.71 µM
IC50 (Y598A, V -40 mV): 7.02 µM
IC50 (Y598A, V -60 mV): 8.86 µM
IC50 (Y598A, V -80 mV): 11.2 µM
IC50 (Y598A, V -100 mV): 13.5 µM
IC50 (Y598A, V -120 mV): 15.9 µM
IC50 (Y598A, V -140 mV): 18 µM
Compound: N#Cc1c(C(F)(F)F)cc(O)n2c1nc1ccccc12 [1PBC]
